Experimental data taken from the NIST ThermoML archive (doi:10.1021/acs.jced.5b00049).
Numbers after ± are expanded uncertainties.

Conditions: Liquid, Buoyancy - hydrostatic balance with magnetic suspension - one sinker

CCCCCCCCCCCCCC [tetradecane]
mass density (313.13 K, 16040 kPa): 760.35 ± 0.24 kg/m3
mass density (313.15 K, 14050 kPa): 759.03 ± 0.24 kg/m3
mass density (313.15 K, 18060 kPa): 761.65 ± 0.24 kg/m3
mass density (313.17 K, 19040 kPa): 762.28 ± 0.24 kg/m3
mass density (313.19 K, 10020 kPa): 756.25 ± 0.24 kg/m3
mass density (313.23 K, 12040 kPa): 757.62 ± 0.24 kg/m3
mass density (323.14 K, 14050 kPa): 752.38 ± 0.24 kg/m3
mass density (323.18 K, 12040 kPa): 750.93 ± 0.24 kg/m3
mass density (323.18 K, 16070 kPa): 753.74 ± 0.24 kg/m3
mass density (323.23 K, 18060 kPa): 755.07 ± 0.24 kg/m3
mass density (323.25 K, 19080 kPa): 755.76 ± 0.24 kg/m3
mass density (323.26 K, 10000 kPa): 749.44 ± 0.24 kg/m3
mass density (333.13 K, 18050 kPa): 748.61 ± 0.24 kg/m3
mass density (333.13 K, 19060 kPa): 749.31 ± 0.24 kg/m3
mass density (333.14 K, 10050 kPa): 742.64 ± 0.23 kg/m3
mass density (333.16 K, 12040 kPa): 744.14 ± 0.24 kg/m3
mass density (333.16 K, 16060 kPa): 747.18 ± 0.24 kg/m3
mass density (333.28 K, 14060 kPa): 745.66 ± 0.24 kg/m3
mass density (343.31 K, 16030 kPa): 740.68 ± 0.23 kg/m3
mass density (343.31 K, 19040 kPa): 742.92 ± 0.23 kg/m3
mass density (343.32 K, 10040 kPa): 736 ± 0.23 kg/m3
mass density (343.32 K, 12050 kPa): 737.59 ± 0.23 kg/m3
mass density (343.34 K, 18020 kPa): 742.16 ± 0.23 kg/m3
mass density (343.35 K, 14070 kPa): 739.16 ± 0.23 kg/m3
mass density (353.48 K, 16030 kPa): 734.17 ± 0.23 kg/m3
mass density (353.5 K, 18010 kPa): 735.7 ± 0.23 kg/m3
mass density (353.51 K, 19050 kPa): 736.41 ± 0.23 kg/m3
mass density (353.58 K, 12050 kPa): 730.83 ± 0.23 kg/m3
mass density (353.63 K, 10020 kPa): 729.05 ± 0.23 kg/m3
mass density (353.66 K, 14040 kPa): 732.42 ± 0.23 kg/m3
